According to patent US10689398B2, “OXA-Diazaspiro compounds having activity against pain” (ESTEVE PHARMACEUTICALS, S.A., priority 2015, dated 2020):

Biological target: human σ1 receptor (Homo sapiens (Human), UniProt Q99720)
Experiment: Human σ1 receptor radioligand assay
Format: binding
Conditions: transfected HEK-293 membranes, [3H](+)-pentazocine radioligand
Experimental: Human σ1 Receptor Radioligand Assay
To investigate binding properties of test compounds to human σ1 receptor, transfected HEK-293 membranes and [^3H](+)-pentazocine (Perkin Elmer, NET-1056), as the radioligand, were used. The assay was carried out with 7 μg of membrane suspension, 5 nM of [^3H](+)-pentazocine in either absence or presence of either buffer or 10 μM Haloperidol for total and non-specific binding, respectively. Binding buffer contained Tris-HCl 50 mM at pH 8. Plates were incubated at 37° C. for 120 minutes. After the incubation period, the reaction mix was then transferred to MultiScreen HTS, FC plates (Millipore), filtered and plates were washed 3 times with ice-cold 10 mM Tris-HCL (pH7.4). Filters were dried and counted at approximately 40% efficiency in a MicroBeta scintillation counter (Perkin-Elmer) using EcoScint liquid scintillation cocktail

human σ1 receptor, sequence (Q99720 whole entry): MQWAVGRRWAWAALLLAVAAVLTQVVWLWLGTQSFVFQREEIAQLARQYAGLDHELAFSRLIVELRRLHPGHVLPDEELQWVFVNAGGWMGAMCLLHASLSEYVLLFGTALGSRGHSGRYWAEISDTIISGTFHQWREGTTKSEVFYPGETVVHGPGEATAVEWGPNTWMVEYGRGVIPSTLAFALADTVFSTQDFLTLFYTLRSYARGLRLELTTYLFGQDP

| SMILES | Ki |
| --- | --- |
| CCN1CC2(CN(CCC(C)C)C2)O[C@@H](C)C1=O [Example 37, (S)-8-ethyl-2-isopentyl-6-methyl-5-oxa-2,8-diazaspiro[3.5]nonan-7-one] | ≥ 500 nM |
| CCN1C[C@@]2(CCCN(CCC(C)C)CC2)O[C@@H](C)C1=O [Example 48, (2S,6S)-4-ethyl-9-isopentyl-2-methyl-1-oxa-4,9-diazaspiro[5.6]dodecan-3-one] | ≥ 500 nM |
| CCN1C[C@@]2(CCCN(Cc3ccccc3)CC2)O[C@H](C)C1=O [Example 59, (2R,6S)-9-benzyl-4-ethyl-2-methyl-1-oxa-4,9-diazaspiro[5.6]dodecan-3-one] | ≥ 500 nM |
| CCN1CC2(CCCN(Cc3ccc(C#N)cc3)CC2)OC(C)(C)C1=O (stereo not drawn) [Example 58, 4-((4-ethyl-2,2-dimethyl-3-oxo-1-oxa-4,9-diazaspiro[5.6]dodecan-9-yl)methyl)benzonitrile] | ≥ 500 nM |
| CCN1C[C@@]2(CCCN(Cc3ccccc3)CC2)O[C@@H](C)C1=O [Example 61, (2S,6S)-9-benzyl-4-ethyl-2-methyl-1-oxa-4,9-diazaspiro[5.6]dodecan-3-one] | ≥ 500 nM |
| CC(C)N1CC2(CN(CC(C)(C)C)C2)O[C@H](C)C1=O [Example 77, (R)-8-isopropyl-6-methyl-2-neopentyl-5-oxa-2,8-diazaspiro[3.5]nonan-7-one] | ≥ 500 nM |
| CCN1CC2(CCCN(CCC(C)C)CC2)OC(C)(C)C1=O (stereo not drawn) [Example 31, 4-ethyl-9-isopentyl-2,2-dimethyl-1-oxa-4,9-diazaspiro[5.6]dodecan-3-one] | < 500 nM |
| CCN1CC2(CN(CC(C)C)C2)O[C@H](C)C1=O [Example 38, (R)-8-ethyl-2-isobutyl-6-methyl-5-oxa-2,8-diazaspiro[3.5]nonan-7-one] | ≥ 500 nM |
| CC(C)CCN1CCCC2(CC1)CN(c1ccccc1)C(=O)C1(CC1)O2 (stereo not drawn) [Example 10, 8-isopentyl-13-phenyl-4-oxa-8,13-diazadispiro[2.1.6.3]tetradecan-14-one] | < 100 nM |
| CCN1CC2(CN(CCC(C)C)C2)O[C@H](C)C1=O [Example 36, (R)-8-ethyl-2-isopentyl-6-methyl-5-oxa-2,8-diazaspiro[3.5]nonan-7-one] | ≥ 500 nM |
| c1ccc(CCN2CCCC3(CC2)CN(Cc2ccccc2)CC2(CC2)O3)cc1 (stereo not drawn) [Example 83, 13-benzyl-8-phenethyl-4-oxa-8,13-diazadispiro[2.1.6.3]tetradecane] | < 100 nM |
| CCN1CC2(CCCN(CCc3ccccc3)CC2)OC2(CC2)C1=O (stereo not drawn) [Example 3, 13-ethyl-8-phenethyl-4-oxa-8,13-diazadispiro[2.1.6.3]tetradecan-14-one] | < 100 nM |
| CC(C)CN1CCCC2(CC1)CN(C(=O)c1ccccc1)CC1(CC1)O2 (stereo not drawn) [Example 29, (8-isobutyl-4-oxa-8,13-diazadispiro[2.1.6.3]tetradecan-13-yl)(phenyl)methanone] | < 500 nM |
| CC(C)CCN1CC2(C1)CN(C(C)C)C(=O)[C@H](C)O2 [Example 41, (S)-2-isopentyl-8-isopropyl-6-methyl-5-oxa-2,8-diazaspiro[3.5]nonan-7-one] | ≥ 500 nM |
| O=C(c1ccccc1)N1CC2(CCCN(CCc3ccccc3)CC2)OC2(CC2)C1 (stereo not drawn) [Example 27, (8-phenethyl-4-oxa-8,13-diazadispiro[2.1.6.3]tetradecan-13-yl)(phenyl)methanone] | < 100 nM |
| CCN1CC2(CCCN(CCC(C)C)CC2)OC2(CC2)C1=O (stereo not drawn) [Example 4, 13-ethyl-8-isopentyl-4-oxa-8,13-diazadispiro[2.1.6.3]tetradecan-14-one] | < 100 nM |
| CCN1C[C@@]2(CCCN(Cc3ccc(C#N)cc3)CC2)O[C@@H](C)C1=O [Example 69, 4-(((2S,6S)-4-ethyl-2-methyl-3-oxo-1-oxa-4,9-diazaspiro[5.6]dodecan-9-yl)methyl)benzonitrile] | ≥ 500 nM |
| c1ccc(CN2CCCC3(C2)CN(c2ccccc2)CC2(CC2)O3)cc1 (stereo not drawn) [Example 23, 7-benzyl-12-phenyl-4-oxa-7,12-diazadispiro[2.1.5.3]tridecane] | < 500 nM |
